Inhibition data for 24 compounds are collected here from patent publication US7728028B2, “Substituted imidazoline compounds” (Gruenenthal GmbH, priority 2005, dated 2010).

As a reminder, the inhibition is the percentage by which the read-out fell short of the control.

This experiment deals with T1, human μ-opiate receptor (Homo sapiens, UniProt P35372).
T1 construct: purchased PerkinElmer Life Sciences, Zaventem, Belgium RB-HOM; host or cells: CHO-K1 cells (recombinant expression; membrane preparation)
T1 sequence (P35372 whole entry): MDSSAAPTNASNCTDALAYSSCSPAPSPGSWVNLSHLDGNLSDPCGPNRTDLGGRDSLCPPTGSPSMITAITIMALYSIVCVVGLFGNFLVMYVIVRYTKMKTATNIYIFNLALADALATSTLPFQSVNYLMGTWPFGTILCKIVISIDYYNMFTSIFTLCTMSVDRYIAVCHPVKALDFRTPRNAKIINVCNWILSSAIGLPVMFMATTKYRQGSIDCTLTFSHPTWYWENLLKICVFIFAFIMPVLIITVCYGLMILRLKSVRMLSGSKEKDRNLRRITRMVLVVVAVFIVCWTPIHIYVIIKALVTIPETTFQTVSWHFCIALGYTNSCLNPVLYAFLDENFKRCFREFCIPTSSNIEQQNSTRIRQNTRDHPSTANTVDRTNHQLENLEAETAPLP
The experiment in a line: Affinity for the human μ-opiate receptor ([3H]-naloxone displacement, SPA). Particulars: Table 2, Examples 11-161; test substance 1 μmole/l; inhibition of specific [3H]-naloxone binding; CHO-K1 membranes; read-out: μ-Opioid receptor, % inhibition [1 μM]. How it is done: Investigations on the Efficacy of the Compounds According to the Invention Method for Determining the Affinity for the Human μ-Opiate Receptor
The receptor affinity for the human μ-opiate receptor is determined in a homogeneous batch in microtiter plates. For this purpose dilution series of the substances to be tested are incubated with a receptor membrane preparation (15-40 μg protein/250 μl incubation batch) of CHO-K1 cells, which express the human μ-opiate receptor (RB-HOM receptor membrane preparation from PerkinElmer Life Sciences, Zaventem, Belgium), in the presence of 1 nmole/l of the radioactive ligand [^3H]-naloxone (NET719, PerkinElmer Life Sciences company, Zaventem, Belgium) and 1 mg WGA-SPA beads (wheat germ agglutinin SPA beads from Amersham/Pharmacia, Freiburg, Germany) in a total volume of 250 μl for 90 minutes at room temperature. 50 mmole/l of Tris-HCl supplemented with 0.06% bovine serum albumin is used as incubation buffer. In order to determine the non-specific binding, 100 μmole/l of naloxone is additionally added. After the end of the 90 minutes' incubation time the microtiter plates are centrifuged for 20 minutes at 1000 g and the radioactivity is measured in a beta counter (Microbeta-Trilux, PerkinElmer Wallac, Freiburg, Germany). The percentage displacement of the radioactive ligand from its binding to the human μ-opiate receptor at a concentration of the test substances of 1 μmole/l is determined and is given as percentage inhibition of the specific binding.
`CCCC1(C(=O)OC)N=CN(C2CCCCC2)C1CC1CCC(C(c2ccc(F)cc2)N(C)C)CC1` (stereo not drawn) [Example 105, 1-cyclohexyl-5-{4-[dimethylamino-(4-fluorophenyl)-methyl]-cyclohexylmethyl}-4-propyl-4,5-dihydro-1H-imidazole-4-carboxylic acid methyl ester]: the inhibition at 1 µM worked out at 95%.

On to `CCCC1(C(=O)OC)N=CN(CCc2ccccc2)C1CC1CCC(C(c2cccc(F)c2)N(C)C)CC1` (stereo not drawn) [Example 129, 5-{4-[dimethylamino-(3-fluorophenyl)-methyl]-cyclohexylmethyl}-1-phenethyl-4-propyl-4,5-dihydro-1H-imidazole-4-carboxylic acid methyl ester], for which the inhibition at 1 µM was determined as 93%.

On to `CCCC1(C(=O)OC)N=CN(Cc2ccccc2)C1CC1CCC(C(CCc2ccccc2)N(C)C)CC1` (stereo not drawn) [Example 144, 1-benzyl-5-[4-(1-dimethylamino-3-phenylpropyl)-cyclohexylmethyl]-4-propyl-4,5-dihydro-1H-imidazole-4-carboxylic acid methyl ester], for which the inhibition at 1 µM stood at 90%.

As for `CCCN1C=NC(CSC)(C(=O)OC)C1CC1CCC(C(c2ccc(Cl)cc2)N(C)C)CC1` (stereo not drawn) [Example 63, 5-{4-[(4-chlorophenyl)-dimethylaminomethyl]-cyclohexylmethyl}-4-methylsulfanylmethyl-1-propyl-4,5-dihydro-1H-imidazole-4-carboxylic acid methyl ester], the inhibition at 1 µM came out at 97%.

As to `COC(=O)CCC1(C(=O)OC)N=CN(C2CCCCC2)C1CC1CCC(C(c2cccc(F)c2)N(C)C)CC1` (stereo not drawn) [Example 147, 1-cyclohexyl-5-{4-[dimethylamino-(3-fluorophenyl)-methyl]-cyclohexylmethyl}-4-(2-methoxycarbonylethyl)-4,5-dihydro-1H-imidazole-4-carboxylic acid methyl ester], the inhibition at 1 µM turned out to be 98%.

Consider `COC(=O)C1(CSCc2ccccc2)N=CN(Cc2ccccc2)C1CC1CCC(C(c2cccc(F)c2)N(C)C)CC1` (stereo not drawn) [Example 86, 1-benzyl-4-benzylsulfanylmethyl-5-{4-[dimethylamino-(3-fluorophenyl)-methyl]-cyclohexylmethyl}-4,5-dihydro-1H-imidazole-4-carboxylic acid methyl ester], for which the inhibition at 1 µM was determined as 71%.

In the case of `COC(=O)CCC1(C(=O)OC)N=CN(Cc2ccccc2)C1CC1CCC(C(c2cccc(F)c2)N(C)C)CC1` (stereo not drawn) [Example 85, 1-benzyl-5-{4-[dimethylamino-(3-fluorophenyl)-methyl]-cyclohexylmethyl}-4-(2-methoxycarbonylethyl)-4,5-dihydro-1H-imidazole-4-carboxylic acid methyl ester], the inhibition at 1 µM came to 95%.

On to `COC(=O)C1(Cc2ccc(Cl)cc2)N=CN(C2CCCCC2)C1C1CCC(C(c2cccc(F)c2)N(C)C)CC1` (stereo not drawn) [Example 12, 4-(4-chlorobenzyl)-1-cyclohexyl-5-{4-[dimethylamino-(3-fluorophenyl)-methyl]-cyclohexyl}-4,5-dihydro-1H-imidazole-4-carboxylic acid methyl ester], for which the inhibition at 1 µM was 73%.

As for `CCCCN1C=NC(CC(C)C)(C(=O)OC)C1C1CCC(C(c2cccc(F)c2)N(C)C)CC1` (stereo not drawn) [Example 29, 1-butyl-5-{4-[dimethylamino-(3-fluorophenyl)-methyl]-cyclohexyl}-4-isobutyl-4,5-dihydro-1H-imidazole-4-carboxylic acid methyl ester], the inhibition at 1 µM was determined as 89%.

As for `CCCN1C=NC(Cc2ccc(Cl)cc2)(C(=O)OC)C1C1CCC(C(c2cccc(F)c2)N(C)C)CC1` (stereo not drawn) [Example 22, 4-(4-chlorobenzyl)-5-{4-[dimethylamino-(3-fluorophenyl)-methyl]-cyclohexyl}-1-propyl-4,5-dihydro-1H-imidazole-4-carboxylic acid methyl ester], the inhibition at 1 µM was 88%.

In the case of `COC(=O)C1(CC(C)C)N=CN(C2CCCCC2)C1C1CCC(C(c2cccc(F)c2)N(C)C)CC1` (stereo not drawn) [Example 11, 1-cyclohexyl-5-{4-[dimethylamino-(3-fluorophenyl)-methyl]-cyclohexyl}-4-isobutyl-4,5-dihydro-1H-imidazole-4-carboxylic acid methyl ester], the inhibition at 1 µM is 84%.

Consider `CCCN1C=NC(CCC(=O)OC)(C(=O)OC)C1CC1CCC(C(c2ccc(Cl)cc2)N(C)C)CC1` (stereo not drawn) [Example 61, 5-{4-[(4-chlorophenyl)-dimethylaminomethyl]-cyclohexylmethyl}-4-(2-methoxycarbonylethyl)-1-propyl-4,5-dihydro-1H-imidazole-4-carboxylic acid methyl ester], for which the inhibition at 1 µM is 93%.

`COC(=O)C1(Cc2ccc(Cl)cc2)N=CN(Cc2ccccc2)C1C1CCC(C(c2ccc(Cl)cc2)N(C)C)CC1` (stereo not drawn) [Example 49, 1-benzyl-4-(4-chlorobenzyl)-5-{4-[(4-chlorophenyl)-dimethylaminomethyl]-cyclohexyl}-4,5-dihydro-1H-imidazole-4-carboxylic acid methyl ester]: the inhibition at 1 µM stood at 84%.

For `CCCCN1C=NC(CSC)(C(=O)OC)C1CC1CCC(C(c2ccc(Cl)cc2)N(C)C)CC1` (stereo not drawn) [Example 89, 1-butyl-5-{4-[(4-chlorophenyl)-dimethylaminomethyl]-cyclohexylmethyl}-4-methylsulfanylmethyl-4,5-dihydro-1H-imidazole-4-carboxylic acid methyl ester], the inhibition at 1 µM amounted to 96%.

As to `CCCCN1C=NC(CSC)(C(=O)OC)C1C1CCC(C(c2cccc(F)c2)N(C)C)CC1` (stereo not drawn) [Example 66, 1-butyl-5-{4-[dimethylamino-(3-fluorophenyl)-methyl]-cyclohexyl}-4-methylsulfanylmethyl-4,5-dihydro-1H-imidazole-4-carboxylic acid methyl ester], the inhibition at 1 µM amounted to 89%.

For `COC(=O)C1(CSC)N=CN(Cc2ccccc2)C1CC1CCC(C(c2ccc(Cl)cc2)N(C)C)CC1` (stereo not drawn) [Example 100, 1-benzyl-5-{4-[(4-chlorophenyl)-dimethylaminomethyl]-cyclohexylmethyl}-4-methylsulfanylmethyl-4,5-dihydro-1H-imidazole-4-carboxylic acid methyl ester], the inhibition at 1 µM stood at 97%.

Regarding `COC(=O)C1(Cc2ccc(Cl)cc2)N=CN(CCc2ccccc2)C1C1CCC(C(c2ccc(Cl)cc2)N(C)C)CC1` (stereo not drawn) [Example 41, 4-(4-chlorobenzyl)-5-{4-[(4-chlorophenyl)-dimethylaminomethyl]-cyclohexyl}-1-phenethyl-4,5-dihydro-1H-imidazole-4-carboxylic acid methyl ester], the inhibition at 1 µM is 79%.

Turning to `CCCCN1C=NC(C(=O)OC)(C(C)CC)C1CC1CCC(C(c2ccc(Cl)cc2)N(C)C)CC1` (stereo not drawn) [Example 88, 1-butyl-4-sec-butyl-5-{4-[(4-chlorophenyl)-dimethylaminomethyl]-cyclohexylmethyl}-4,5-dihydro-1H-imidazole-4-carboxylic acid methyl ester], the inhibition at 1 µM was 98%.

For the compound `CCCCN1C=NC(CCC)(C(=O)OC)C1CC1CCC(C(CCc2ccccc2)N(C)C)CC1` (stereo not drawn) [Example 127, 1-butyl-5-[4-(1-dimethylamino-3-phenylpropyl)-cyclohexylmethyl]-4-propyl-4,5-dihydro-1H-imidazole-4-carboxylic acid methyl ester], the inhibition at 1 µM worked out at 74%.

Take `COC(=O)CCC1(C(=O)OC)N=CN(C2CCCCC2)C1CC1CCC(C(c2ccc(F)cc2)N(C)C)CC1` (stereo not drawn) [Example 151, 1-cyclohexyl-5-{4-[dimethylamino-(4-fluorophenyl)-methyl]-cyclohexylmethyl}-4-(2-methoxycarbonylethyl)-4,5-dihydro-1H-imidazole-4-carboxylic acid methyl ester]: the inhibition at 1 µM is 95%.

On to `CCCCN1C=NC(Cc2ccc(Cl)cc2)(C(=O)OC)C1CC1CCC(C(c2ccc(Cl)cc2)N(C)C)CC1` (stereo not drawn) [Example 35, 1-butyl-4-(4-chlorobenzyl)-5-{4-[(4-chlorophenyl)-dimethylaminomethyl]-cyclohexylmethyl}-4,5-dihydro-1H-imidazole-4-carboxylic acid methyl ester], for which the inhibition at 1 µM was determined as 92%.

On to `COC(=O)CCC1(C(=O)OC)N=CN(CCc2ccccc2)C1CC1CCC(C(c2ccc(Cl)cc2)N(C)C)CC1` (stereo not drawn) [Example 94, 5-{4-[(4-chlorophenyl)-dimethylaminomethyl]-cyclohexylmethyl}-4-(2-methoxycarbonylethyl)-1-phenethyl-4,5-dihydro-1H-imidazole-4-carboxylic acid methyl ester], for which the inhibition at 1 µM is 97%.

Consider `COC(=O)C1(CSCc2ccccc2)N=CN(CCc2ccccc2)C1CC1CCC(C(c2cccc(F)c2)N(C)C)CC1` (stereo not drawn) [Example 82, 4-benzylsulfanylmethyl-5-{4-[dimethylamino-(3-fluorophenyl)-methyl]-cyclohexylmethyl}-1-phenethyl-4,5-dihydro-1H-imidazole-4-carboxylic acid methyl ester], for which the inhibition at 1 µM was determined as 95%.

On to `COC(=O)C1(C)N=CN(Cc2ccccc2)C1CC1CCC(C(CCc2ccccc2)N(C)C)CC1` (stereo not drawn) [Example 146, 1-benzyl-5-[4-(1-dimethylamino-3-phenylpropyl)-cyclohexylmethyl]-4-methyl-4,5-dihydro-1H-imidazole-4-carboxylic acid methyl ester], for which the inhibition at 1 µM was determined as 79%.
